Laboratory results reported in ChEMBL document CHEMBL1909046, “DrugMatrix in vitro pharmacology data”.

Tests used:
[1] = target: T1, Adenosine receptor A1 (Homo sapiens, UniProt P30542); type: cell membranes, CHO, Membrane; details: cho;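 further: radioligand binding assay at the adenosine A1 receptor, with DPCPX serving as the labelled ligand; in other assays of this panel Not Active means under 50% inhibition at 10 µM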
T1 sequence (P30542 whole entry): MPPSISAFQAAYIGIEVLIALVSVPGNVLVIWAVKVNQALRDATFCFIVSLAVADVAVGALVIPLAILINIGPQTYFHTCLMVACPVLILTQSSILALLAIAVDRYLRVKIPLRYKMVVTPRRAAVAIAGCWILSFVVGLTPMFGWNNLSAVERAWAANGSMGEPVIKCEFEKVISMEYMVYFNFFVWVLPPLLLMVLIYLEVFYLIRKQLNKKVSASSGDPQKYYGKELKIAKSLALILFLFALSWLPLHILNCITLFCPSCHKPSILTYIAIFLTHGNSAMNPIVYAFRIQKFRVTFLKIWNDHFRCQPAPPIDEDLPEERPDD

[2] = target: T2, Neuropeptide Y receptor type 2 (Homo sapiens, UniProt P49146); type: cell membranes, Membrane; details: kan-ts; further: in other assays of this panel Not Active means under 50% inhibition at 10 µM
T2 sequence (P49146 whole entry): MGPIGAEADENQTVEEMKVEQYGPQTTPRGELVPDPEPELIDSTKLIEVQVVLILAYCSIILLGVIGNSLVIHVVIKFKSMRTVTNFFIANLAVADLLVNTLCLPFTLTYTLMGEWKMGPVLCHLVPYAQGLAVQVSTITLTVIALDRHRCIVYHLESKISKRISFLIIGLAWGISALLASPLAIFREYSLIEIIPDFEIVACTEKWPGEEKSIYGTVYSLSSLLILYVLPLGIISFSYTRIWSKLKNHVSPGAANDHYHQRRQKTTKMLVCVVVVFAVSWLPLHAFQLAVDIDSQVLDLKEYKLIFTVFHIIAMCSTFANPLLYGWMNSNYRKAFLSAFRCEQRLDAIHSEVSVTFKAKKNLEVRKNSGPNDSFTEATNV

[3] = DRUGMATRIX: Imidazoline I2, Central radioligand binding (ligand: [3H] Idazoxan); type: cell membranes, Rattus norvegicus, Wistar, Cerebral cortex, Membrane; details: Not Active = under 50% inhibition at 10 µM
[4] = target: D(1A) dopamine receptor (Homo sapiens, UniProt P21728); assay: DRUGMATRIX: Dopamine D1 radioligand binding (ligand: [3H] SCH-23390); type: cell membranes, CHO, Membrane; details: cho; Not Active = under 50% inhibition at 10 µM
Sequence of D(1A) dopamine receptor (P21728 whole entry): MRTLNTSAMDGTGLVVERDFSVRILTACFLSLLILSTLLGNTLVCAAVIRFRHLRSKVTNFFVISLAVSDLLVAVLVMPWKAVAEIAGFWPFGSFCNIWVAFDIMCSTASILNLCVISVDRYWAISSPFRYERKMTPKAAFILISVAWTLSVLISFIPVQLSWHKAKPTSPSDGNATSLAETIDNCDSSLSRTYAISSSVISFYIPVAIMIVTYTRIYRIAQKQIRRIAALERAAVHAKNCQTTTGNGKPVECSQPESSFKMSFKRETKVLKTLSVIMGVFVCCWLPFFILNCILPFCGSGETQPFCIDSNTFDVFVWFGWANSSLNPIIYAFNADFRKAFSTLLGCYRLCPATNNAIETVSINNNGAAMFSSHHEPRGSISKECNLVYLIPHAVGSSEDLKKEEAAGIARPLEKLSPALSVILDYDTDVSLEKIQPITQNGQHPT

[5] = target: 5-hydroxytryptamine receptor 6 (Homo sapiens, UniProt P50406); type: cell membranes, HeLa, Membrane; details: hela; further: in other assays of this panel Not Active means under 50% inhibition at 10 µM
Sequence of 5-hydroxytryptamine receptor 6 (P50406 whole entry): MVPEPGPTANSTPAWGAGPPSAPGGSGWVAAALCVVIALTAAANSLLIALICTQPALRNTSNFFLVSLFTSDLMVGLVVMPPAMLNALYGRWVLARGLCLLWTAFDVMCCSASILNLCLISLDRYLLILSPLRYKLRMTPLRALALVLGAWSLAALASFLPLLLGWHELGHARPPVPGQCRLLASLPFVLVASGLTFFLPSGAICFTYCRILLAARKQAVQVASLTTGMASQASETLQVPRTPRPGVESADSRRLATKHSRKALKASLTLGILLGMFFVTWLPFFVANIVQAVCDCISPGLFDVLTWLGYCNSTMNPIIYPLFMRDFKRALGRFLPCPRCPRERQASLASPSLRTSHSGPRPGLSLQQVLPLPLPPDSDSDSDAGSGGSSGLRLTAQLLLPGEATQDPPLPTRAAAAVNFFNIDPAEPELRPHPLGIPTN

[6] = target: T3, Vasoactive intestinal polypeptide receptor 1 (Homo sapiens, UniProt P32241); type: cell membranes, Membrane; details: ht-29; further: in other assays of this panel Not Active means under 50% inhibition at 10 µM
T3 sequence (P32241 whole entry): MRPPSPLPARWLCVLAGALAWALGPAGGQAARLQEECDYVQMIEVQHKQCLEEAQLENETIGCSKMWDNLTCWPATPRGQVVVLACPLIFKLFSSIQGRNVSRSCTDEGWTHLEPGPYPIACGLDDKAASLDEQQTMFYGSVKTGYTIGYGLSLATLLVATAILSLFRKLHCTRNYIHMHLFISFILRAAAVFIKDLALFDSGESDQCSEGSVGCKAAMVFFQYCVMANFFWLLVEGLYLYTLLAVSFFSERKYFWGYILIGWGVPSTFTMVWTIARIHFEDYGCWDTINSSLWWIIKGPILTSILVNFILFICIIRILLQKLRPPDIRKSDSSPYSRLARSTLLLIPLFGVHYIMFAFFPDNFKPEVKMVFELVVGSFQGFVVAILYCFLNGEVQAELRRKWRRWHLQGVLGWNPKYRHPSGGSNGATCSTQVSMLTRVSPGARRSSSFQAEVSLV

COc1ccccc1OCC(O)COC(N)=O (centres undefined) [METHOCARBAMOL]
Not Active: IC50 [1] | IC50 [2] | IC50 [3] | Ki [3] | IC50 [4] | IC50 [5] | IC50 [6]

CN(Cc1cnc2nc(N)nc(N)c2n1)c1ccc(C(=O)N[C@@H](CCC(=O)O)C(=O)O)cc1 [METHOTREXATE]
Not Active: IC50 [1] | IC50 [2] | IC50 [3] | Ki [3] | IC50 [4] | IC50 [5] | IC50 [6]

COC(=O)c1ccccc1O [METHYL SALICYLATE]
Not Active: IC50 [1] | IC50 [2] | IC50 [3] | Ki [3] | IC50 [4] | IC50 [5] | IC50 [6]

COc1ccc2cc(CCC(C)=O)ccc2c1 [NABUMETONE]
Not Active: IC50 [1] | IC50 [2] | IC50 [3] | Ki [3] | IC50 [4] | IC50 [5] | IC50 [6]

O=C(O)c1cccnc1 [NIACIN]
Not Active: IC50 [1] | IC50 [2] | IC50 [3] | Ki [3] | IC50 [4] | IC50 [5] | IC50 [6]

CNC(=C[N+](=O)[O-])NCCSCc1csc(CN(C)C)n1 [NIZATIDINE]
Not Active: IC50 [1] | IC50 [2] | IC50 [3] | Ki [3] | IC50 [4] | IC50 [5] | IC50 [6]

C[C@]12C/C(=C/O)C(=O)C[C@@H]1CC[C@@H]1[C@@H]2CC[C@@]2(C)[C@H]1CC[C@]2(C)O [OXYMETHOLONE]
Not Active: IC50 [1] | IC50 [2] | IC50 [3] | Ki [3] | IC50 [4] | IC50 [5] | IC50 [6]

CC(C)(CO)C(O)C(=O)NCCCO (centres undefined) [PANTHENOL]
Not Active: IC50 [1] | IC50 [2] | IC50 [3] | Ki [3] | IC50 [4] | IC50 [5] | IC50 [6]

COc1ccc(Cc2nccc3cc(OC)c(OC)cc23)cc1OC [PAPAVERINE]
Not Active: IC50 [1] | IC50 [2] | IC50 [3] | Ki [3] | IC50 [4] | IC50 [5] | IC50 [6]

OCCN1CCN(CCCN2c3ccccc3Sc3ccc(Cl)cc32)CC1 [PERPHENAZINE]
Not Active: IC50 [1] | IC50 [2] | IC50 [3] | Ki [3] | IC50 [4] | IC50 [5] | IC50 [6]

CCCCC1C(=O)N(c2ccccc2)N(c2ccccc2)C1=O [PHENYLBUTAZONE]
Not Active: IC50 [1] | IC50 [2] | IC50 [3] | Ki [3] | IC50 [4] | IC50 [5] | IC50 [6]

Cc1cccc(Nc2cc(Cl)nc(SCC(=O)O)n2)c1C [PIRINIXIC ACID]
Not Active: IC50 [1] | IC50 [2] | IC50 [3] | Ki [3] | IC50 [4] | IC50 [5] | IC50 [6]

CC[C@H](C)C(=O)O[C@H]1C[C@H](O)C=C2C=C[C@H](C)[C@H](CC[C@@H](O)C[C@@H](O)CC(=O)O)[C@H]21 [PRAVASTATIN]
Not Active: IC50 [1] | IC50 [2] | IC50 [3] | Ki [3] | IC50 [4] | IC50 [5] | IC50 [6]

CC(C)(Sc1cc(C(C)(C)C)c(O)c(C(C)(C)C)c1)Sc1cc(C(C)(C)C)c(O)c(C(C)(C)C)c1 [PROBUCOL]
Not Active: IC50 [1] | IC50 [2] | IC50 [3] | Ki [3] | IC50 [4] | IC50 [5] | IC50 [6]

COBALT(II) ACETYLACETONATE
Not Active: IC50 [1] | Ki [1] | IC50 [2] | Ki [2] | IC50 [3] | Ki [3] | IC50 [4] | Ki [4] | IC50 [5] | Ki [5] | IC50 [6] | Ki [6]

INSULIN HUMAN
Not Active: IC50 [1] | Ki [1] | IC50 [2] | Ki [2] | IC50 [3] | Ki [3] | IC50 [4] | Ki [4] | IC50 [5] | Ki [5] | IC50 [6] | Ki [6]

POLYVINYL ALCOHOL
Not Active: IC50 [1] | Ki [1] | IC50 [2] | Ki [2] | IC50 [3] | Ki [3] | IC50 [4] | Ki [4] | IC50 [5] | Ki [5] | IC50 [6] | Ki [6]
